Experimental data as given in PMC5978685, “Design, Synthesis, and Evaluation of Novel Immunomodulatory Small Molecules Targeting the CD40–CD154 Costimulatory Protein-Protein Interaction” (Molecules : A Journal of Synthetic Chemistry and Natural …, 2018).

Columns and labels:
OX40–OX40L = target: T1, OX40–OX40L (Homo sapiens, UniProt P23510); assay: cell-free ELISA-type binding inhibition assay, OX40–OX40L
T1 construct: purchased Enzo Life Sciences
T1 sequence (P23510 51-183 limits assumed): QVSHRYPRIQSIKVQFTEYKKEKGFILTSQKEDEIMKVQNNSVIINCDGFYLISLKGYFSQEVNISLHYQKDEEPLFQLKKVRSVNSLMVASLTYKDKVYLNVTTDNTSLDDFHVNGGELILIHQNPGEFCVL
Method: (§1) In parallel with the CD40–CD154 assay, the ability of these compounds to inhibit other TNFSFR–TNFSF PPIs, including OX40–OX40L, BAFFR–BAFF, and TNF-R1–TNF-α, was also assessed (Figure 3B–D).
(§2) Binding inhibition assays were performed in a 96-well cell-free format as described before. Briefly, microtiter plates (Nunc F Maxisorp, 96-well; Thermo Fisher Scientific, Waltham, MA, USA) were coated overnight at 4 °C with 100 μL/well of Fc-conjugated receptors diluted in PBS pH 7.2. This was followed by blocking with 200 μL/well of blocking solution (PBS pH 7.2, 0.05% Tween-20, 1% BSA) for 1 h at RT. Then, plates were washed twice using washing solution (PBS pH 7.4, 0.05% Tween-20) and tapped dry before the addition of the appropriate FLAG tagged ligands along with different concentrations of tested dyes diluted in binding buffer (100 mM HEPES, 0.005% BSA pH 7.2) to give a total volume of 100 μL/well. After 1 h incubation, three washes were conducted, and anti-FLAG HRP conjugate was used to detect the bound FLAG-tagged ligand. Plates were washed four times before the addition of 120 μL/well of HRP substrate TMB (3,3′,5,5′-tetramethylbenzidine) and kept in the dark for up to 15 min. The reaction was stopped using 30 μL of 1M H2SO4, and the absorbance value was read at 450 nm. The concentrations of receptors used were 0.3 μg/mL for CD40, TNF-R1, and BAFFR; 0.6 μg/mL for OX40. The concentrations of the ligands were fixed at 0.02 μg/mL for CD154 and TNF-α, 0.06 μg/mL for OX40L, and 0.03 μg/mL for BAFF. These values were selected following preliminary testing to optimize response (i.e., to produce a high-enough signal at conditions close to half-maximal response, EC50). […] To verify that inhibition is not due to colloidal aggregation, CD40 binding inhibition was also measured in the presence of the non-ionic detergent Triton-X 100 (0.01%), as recommended for the detection of such effects.
(§3) All binding inhibition and cell assays were tested in duplicate or triplicate per plates, and assays were performed as at least three independent experiments. As before, binding and cytotoxicity data were converted to percent inhibition and fitted with standard log inhibitor vs. normalized response models using nonlinear regression in GraphPad Prism (GraphPad, La Jolla, CA, USA) to establish half-maximal (median) inhibitory concentration (IC50) or median lethal concentration (LC50) values. Cell assay data were fitted with a similar model that also allowed for a variable slope using the log inhibitor vs. normalized response (variable slope) model from Prism with a Hill slope (n) shared across all compounds. Cell assays and draining lymph node data were analyzed by one-way repeated-measures analysis of variance (ANOVA) followed by Dunnett’s multiple comparison test as a post hoc test for individual differences using GraphPad Prism and a significance level of p < 0.05 for all comparisons.
(§4) Data are (counterclockwise) for human CD40–CD154 (CD40L) (A); OX40–OX40L (B); BAFFR–BAFF (C); and TNF-R1–TNFα (D) and were fitted with standard binding curves. Data are average ± SD (normalized to percent binding) for n = 3 independent experiments with duplicates for each condition.

BAFFR–BAFF = target: T2, BAFFR–BAFF (Homo sapiens, UniProt Q9Y275); assay: cell-free ELISA-type binding inhibition assay, BAFFR–BAFF
T2 construct: purchased Enzo Life Sciences
Method: as §1, §2, §3, §4

[1] = tested on: alloantigen-induced T cell response in draining popliteal lymph node; assay: alloantigen-induced T cell expansion in draining lymph node; format: in vivo, mouse (Balb/c); conditions: Balb/c mice, DBA-2 splenocytes in footpad; 10–20 mg/kg s.c. b.i.d.; p < 0.0001 vs vehicle
Method: The most promising compounds of the present series were evaluated for in vivo activity using the same model of alloantigen-induced T cell expansion in the draining lymph nodes (DLNs) that was described before. This procedure involved injection of splenocytes isolated from DBA-2 mice into the footpad of Balb/c recipients. Within three full days, this causes a significant increase in the number of cells in the draining popliteal lymph node, and this is inhibited by compounds with immunosuppressive activity.
The ability to inhibit alloantigen-induced T cell response in a draining lymph node was tested as described before. In brief, BALB/c mice (10–12 weeks old, female) received a footpad injection of 1 × 10^7 splenocytes isolated from DBA-2 mice (10–12 weeks old, male). CD154 antibody (MR-1; 20 mg/kg, day −1 and 0) or test compounds (20–60 mg/kg; b.i.d. from day −1 to 3, in 20% HPβCD) were administered s.c., and the draining popliteal lymph nodes (DLNs) were collected 3 days after the alloantigen challenge. DLN cells were counted and data are shown as mean ± SD (n = 3–4 per group).
as §3
Figure 6 Inhibition of alloantigen-induced T cell response in a draining lymph node by compounds 6, 15, 18, and 19. Mice (Balb/c) received a footpad injection of allogeneic splenocytes (isolated from DBA-2 mice) and were treated with anti-CD154 antibody (MR-1; 20 mg/kg, day −1 and 0) or compounds as shown (10–40 mg/kg, b.i.d. from day −1 to 3, s.c. in 20% HPβCD). Draining (popliteal) lymph nodes were collected three days after the alloantigen challenge and cells were counted. Data are shown as mean ± SD. Significant differences compared to vehicle-treated controls are indicated by asterisks (**** p < 0.0001; one-way ANOVA followed by Dunnett’s multiple comparison test).

CD40–CD154 (CD40L) = target: T3, CD40–CD154 (CD40L) (Homo sapiens, UniProt P29965); assay: cell-free ELISA-type binding inhibition assay, CD40–CD154; conditions: cell-free CD40–CD154 binding inhibition; read-out: CD40 IC50
T3 construct: purchased Enzo Life Sciences
T3 sequence (P29965 116-261 limits assumed): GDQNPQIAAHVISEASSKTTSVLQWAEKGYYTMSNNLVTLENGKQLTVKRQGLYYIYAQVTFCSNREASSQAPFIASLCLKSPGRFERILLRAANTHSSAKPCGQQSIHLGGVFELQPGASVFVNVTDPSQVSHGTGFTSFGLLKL
Text: As a first assessment, the CD40–CD154 inhibitory activity of compounds 6–19 (Figure 2, Table 1) was quantified using a cell-free in vitro binding inhibition assay as described before. Data fitted with typical sigmoidal concentration dependence curves (log inhibitor versus response model in GraphPad Prism, Hill slope n = 1) are summarized in Figure 3A. […] Polymolecular conglomeration and/or aggregation is often a cause of promiscuous inhibition in screening assays. Therefore, just as in our previous work, we checked for this, and we confirmed for several compounds that inhibition due to aggregation is not the case by retesting inhibitory activity in the presence of a non-ionic detergent (Triton-X 100, 0.01%) as recommended for the detection of such effects.
as §2, §3, §4

TNF-R1–TNFα = target: T4, TNF-R1–TNFα (Homo sapiens, UniProt P01375); assay: cell-free ELISA-type binding inhibition assay, TNF-R1–TNFα; conditions: cell-free TNF-R1–TNFα binding inhibition; read-out: TNF IC50
T4 construct: purchased Enzo Life Sciences
Method: as §1, §2, §3, §4

T4 sequence (P01375 85-233 limits assumed): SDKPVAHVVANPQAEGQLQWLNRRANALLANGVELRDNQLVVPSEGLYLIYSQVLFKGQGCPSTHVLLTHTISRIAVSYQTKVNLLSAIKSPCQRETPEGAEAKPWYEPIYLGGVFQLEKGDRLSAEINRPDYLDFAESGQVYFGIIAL

Row | SMILES | IC50 (OX40–OX40L) [µM] | IC50 (BAFFR–BAFF) [µM] | IC50 (CD40–CD154 (CD40L)) [µM] | IC50 (TNF-R1–TNFα) [µM] | inhibition of alloantigen-induced T cell expansion in draining lymph node [1]
1 | O=C(Nc1ccc(-c2ccc(C(=O)Nc3ccc(S(=O)(=O)O)c4cccc(S(=O)(=O)O)c34)cc2)cc1)c1ccc([N+](=O)[O-])cc1 [Compound 10, 4-(4′-(4-Nitrobenzamido)-[1,1′-biphenyl]-4-carboxamido)naphthalene-1,5-disulfonic acid] | 135 | 440 | 68.3 | 688 | –
2 | COC(=O)c1cccc2c(NC(=O)c3ccc(-c4ccc(NC(=O)c5ccc([N+](=O)[O-])cc5)cc4)cc3)cccc12 [Compound 9, Methyl 5-(4′-(4-nitrobenzamido)-[1,1′-biphenyl]-4-carboxamido)-1-naphthoate] | > 1000 | 686 | 56 | 796 | –
3 | O=C(Nc1ccc(-c2ccc(C(=O)Nc3cccc4cccc(S(=O)(=O)O)c34)cc2)cc1)c1ccc(C(F)(F)F)cc1 [Compound 8, 8-(4′-(4-(trifluoromethyl)benzamido)biphenyl-4-ylcarboxamido)naphthalene-1-sulfonic acid] | 10.1 | 42.2 | 57.8 | 61.1 | –
4 | O=C(Nc1ccc(-c2ccc(C(=O)Nc3cccc4c(S(=O)(=O)O)cccc34)cc2)cc1)c1ccc([N+](=O)[O-])cc1 [Compound 7, 5-(4′-(4-Nitrobenzamido)-[1,1′-biphenyl]-4-carboxamido)naphthalene-1-sulfonic acid] | 9.34 | 2.01 | 0.299 | 555 | –
5 | O=C(Nc1cccc2cccc(S(=O)(=O)O)c12)c1ccc(-c2ccc(NC(=O)c3ccc([N+](=O)[O-])cc3[N+](=O)[O-])cc2)cc1 [Compound 12, 8-(4′-(2,4-Dinitrobenzamido)-[1,1′-biphenyl]-4-carboxamido)naphthalene-1-sulfonic acid] | 10.3 | 38.1 | 50.5 | 61.7 | –

Further lines, with some results ahead:

Row | IC50 (OX40–OX40L) [µM] | IC50 (BAFFR–BAFF) [µM] | IC50 (CD40–CD154 (CD40L)) [µM] | IC50 (TNF-R1–TNFα) [µM] | SMILES | inhibition of alloantigen-induced T cell expansion in draining lymph node [1]
6 | 6.97 | 13.8 | 2.41 | 182 | COC(=O)c1ccc(C(=O)Nc2ccc(-c3ccc(C(=O)Nc4cccc5cccc(S(=O)(=O)O)c45)cc3)nc2)cc1 [Compound 19, 8-(4-(5-(4-(Methoxycarbonyl)benzamido)pyridin-2-yl)benzamido)naphthalene-1-sulfonic acid] | inhibited the alloantigen-induced T cell response in this model in statistically significant manner
7 | 36.6 | 81.4 | 57.5 | 118 | O=C(Nc1ccc2cc(C(=O)Nc3cccc4cccc(S(=O)(=O)O)c34)ccc2c1)c1ccc([N+](=O)[O-])cc1 [Compound 17, 8-(6-(4-Nitrobenzamido)-2-naphthamido)naphthalene-1-sulfonic acid] | –
8 | 7.28 | 26.7 | 44.8 | 61.5 | Cc1cc(NC(=O)c2ccc([N+](=O)[O-])cc2)ccc1-c1ccc(C(=O)Nc2cccc3cccc(S(=O)(=O)O)c23)cc1C [Compound 16, 8-(2,2′-Dimethyl-4′-(4-nitrobenzamido)-[1,1′-biphenyl]-4-carboxamido)naphthalene-1-sulfonic acid] | –
9 | 86.2 | 5.27 | 0.39 | 674 | COC(=O)c1ccc(C(=O)Nc2ccc(-c3ccc(C(=O)Nc4cccc5cccc(S(=O)(=O)O)c45)cc3)cc2)cc1[N+](=O)[O-] [Compound 13, 8-(4′-(4-(Methoxycarbonyl)-3-nitrobenzamido)biphenyl-4-ylcarboxamido)naphthalene-1-sulfonic acid] | –
